We go through 55 compounds from ChEMBL document CHEMBL1201862, “PubChem BioAssay data set” (2004).

Active and inactive are the calls of the source.

A short description of one assay: cells. In kind it is functional.
In the next assay the target is Genome polyprotein (dengue virus type 2, UniProt P29990). Nature of the assay: flavivirus cap methylation enzyme inhibition – biochemical, confirmation dose response, primary screen (AID 588689). The format is functional.
The target in assay [1] is FAD-linked sulfhydryl oxidase ALR (Homo sapiens, UniProt P55789). Put plainly: ALR-catalysed DTT oxidation blockers – biochemical, H2O2 detection, luminescence, cherry-pick, dose response (AID 493248).
A short description of assay [2]: viability of uninfected HEp-2 cells – cell-based, HTS, cytotoxicity control for RSV inhibitor project, dose response (AID 2410). Conditions: human respiratory syncytial virus. The format is functional.
A short description of assay [3]: Luminescence Cell-Based Dose Confirmation HTS to Identify Inhibitors of Platelet Dense Granule Release. [Related pubchem assays: 1663 (Primary HTS), 1678 (Summary of Project)]. The format is functional.
In assay [4] the target is Luciferin 4-monooxygenase (Photinus pyralis, UniProt P08659). Put plainly: inhibition of purified Photinus pyralis luciferase – biochemical, luminescence, dose response (AID 1891).
The next assay has as its target T1, Protein skinhead-1 (Caenorhabditis elegans, UniProt P34707).
T1 sequence (P34707 whole entry): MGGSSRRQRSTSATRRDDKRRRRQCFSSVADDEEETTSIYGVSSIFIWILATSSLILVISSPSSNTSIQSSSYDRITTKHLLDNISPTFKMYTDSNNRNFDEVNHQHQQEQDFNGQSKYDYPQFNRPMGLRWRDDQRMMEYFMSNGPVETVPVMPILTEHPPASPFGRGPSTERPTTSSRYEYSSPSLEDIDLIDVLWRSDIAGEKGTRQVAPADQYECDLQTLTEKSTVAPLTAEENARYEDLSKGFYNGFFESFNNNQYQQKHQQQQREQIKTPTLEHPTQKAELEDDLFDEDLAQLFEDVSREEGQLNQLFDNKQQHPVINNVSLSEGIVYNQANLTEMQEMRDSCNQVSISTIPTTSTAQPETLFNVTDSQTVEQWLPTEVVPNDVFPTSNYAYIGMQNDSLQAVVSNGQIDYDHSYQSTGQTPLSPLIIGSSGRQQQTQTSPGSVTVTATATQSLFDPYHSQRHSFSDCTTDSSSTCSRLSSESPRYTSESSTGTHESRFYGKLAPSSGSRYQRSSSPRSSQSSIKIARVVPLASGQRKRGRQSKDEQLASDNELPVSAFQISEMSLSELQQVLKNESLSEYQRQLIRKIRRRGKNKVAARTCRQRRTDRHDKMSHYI
The format is functional.

Assay [5] in a line: Trypanosoma cruzi growth suppression in host cells – NIH3T3 host cells, beta-gal luminescence, confirmation (AID 2044).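 Further: intracellular parasites grown in NIH/3T3 mouse fibroblasts as host cells; luminescent beta-galactosidase reporter signal from transgenic T. cruzi replicating inside host cells; inhibitors lower the luminescence signal.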 The format is functional, cell-based.
Assay [6] can be described thus: NIH3T3 cell viability loss – ATP luminescence, mouse fibroblasts, counter-screen, dose response (AID 2010).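 Further: cells exposed to compound for about 90 hours before reading.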 In kind it is functional, cell-based. (In general: Counterscreens check selectivity or assay interference.)
Assay [7] is described as follows: viability of HCT116 lacking mutant beta-catenin – cell-based, human colon tumor, dose response (AID 1045).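 Further: HCT116 colon tumor cells with beta catenin knocked out; cells exposed to compound for 60 hours.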 The format is functional.
Assay [8] is described as follows: non-specific 3'UTR reporter inhibition in Clone20-Shn3RL – cell-based, Renilla luciferase, cherry-picked, counter-screen for Shn3 inhibitor project, dose response (AID 624133). The format is functional.
Assay [9] can be described thus: loss of viability in HepG2 cells – cell-based, CellTiter-Glo, cherry-picked, cytotoxicity control for Shn3 inhibitor project, dose response (AID 624134). In kind it is functional.
Assay [10] in a line: reduction of Shn3 3'UTR-driven luciferase in osteoblasts – cell-based, Clone20 osteoblasts, firefly luciferase, cherry-picked, dose response (AID 624132).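 Further: firefly luciferase luminescence from reporter carrying the Shn3 3'UTR in osteoblasts.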 In kind it is functional.
Assay [11] can be described thus: alpha-synuclein stem-loop luciferase translation blockers – H4 neuroglioma cells, luminescence, confirmation (AID 1988). In kind it is functional, cell-based.
Assay [12] is described as follows: Luminescence Cell-Based Dose Response HTS to Identify Inhibitors of 5'UTR Stem-Loop Driven Prion Protein mRNA Translation in H4 Neuroglioblastoma Cells. [Related pubchem assays: 1827 (Project Summary), 1813 (Primary HTS)]. The format is functional.

Luciferin 4-monooxygenase, sequence (P08659 whole entry): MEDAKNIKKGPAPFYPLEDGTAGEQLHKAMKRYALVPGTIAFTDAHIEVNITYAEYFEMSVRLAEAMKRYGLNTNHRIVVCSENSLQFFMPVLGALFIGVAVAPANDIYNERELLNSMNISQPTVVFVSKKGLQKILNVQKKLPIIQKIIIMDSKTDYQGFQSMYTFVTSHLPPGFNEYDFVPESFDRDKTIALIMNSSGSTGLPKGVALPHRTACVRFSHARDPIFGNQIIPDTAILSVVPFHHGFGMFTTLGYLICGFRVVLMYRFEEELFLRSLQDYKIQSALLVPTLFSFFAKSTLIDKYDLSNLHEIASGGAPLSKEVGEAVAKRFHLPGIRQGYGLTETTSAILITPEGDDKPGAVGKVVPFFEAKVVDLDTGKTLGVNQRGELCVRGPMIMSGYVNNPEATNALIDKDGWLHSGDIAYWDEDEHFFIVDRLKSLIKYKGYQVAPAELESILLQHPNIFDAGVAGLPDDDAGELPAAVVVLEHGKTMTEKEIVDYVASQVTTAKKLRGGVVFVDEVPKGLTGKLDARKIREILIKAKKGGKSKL
Genome polyprotein, sequence (P29990 2492-3391 limits assumed): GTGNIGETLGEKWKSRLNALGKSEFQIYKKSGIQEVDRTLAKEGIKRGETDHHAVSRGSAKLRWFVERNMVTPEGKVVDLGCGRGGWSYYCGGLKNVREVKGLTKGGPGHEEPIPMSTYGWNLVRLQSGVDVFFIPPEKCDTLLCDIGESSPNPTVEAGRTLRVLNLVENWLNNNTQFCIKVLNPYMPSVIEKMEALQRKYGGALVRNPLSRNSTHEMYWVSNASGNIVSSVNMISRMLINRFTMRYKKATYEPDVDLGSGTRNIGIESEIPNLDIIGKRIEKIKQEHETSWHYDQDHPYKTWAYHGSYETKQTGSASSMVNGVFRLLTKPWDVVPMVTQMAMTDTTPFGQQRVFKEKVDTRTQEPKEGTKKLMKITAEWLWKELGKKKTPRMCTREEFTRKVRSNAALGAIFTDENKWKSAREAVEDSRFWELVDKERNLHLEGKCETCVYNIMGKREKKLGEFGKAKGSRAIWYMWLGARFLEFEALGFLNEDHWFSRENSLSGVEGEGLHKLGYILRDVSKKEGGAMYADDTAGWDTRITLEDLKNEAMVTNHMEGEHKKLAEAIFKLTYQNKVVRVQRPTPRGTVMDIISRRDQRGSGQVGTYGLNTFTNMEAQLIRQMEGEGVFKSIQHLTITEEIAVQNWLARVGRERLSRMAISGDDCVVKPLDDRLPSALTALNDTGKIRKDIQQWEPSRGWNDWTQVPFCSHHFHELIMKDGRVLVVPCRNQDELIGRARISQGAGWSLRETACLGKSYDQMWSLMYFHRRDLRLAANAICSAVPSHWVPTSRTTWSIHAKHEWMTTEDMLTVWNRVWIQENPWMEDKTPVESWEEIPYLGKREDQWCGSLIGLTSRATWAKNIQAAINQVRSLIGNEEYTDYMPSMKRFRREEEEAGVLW
FAD-linked sulfhydryl oxidase ALR, sequence (P55789 whole entry): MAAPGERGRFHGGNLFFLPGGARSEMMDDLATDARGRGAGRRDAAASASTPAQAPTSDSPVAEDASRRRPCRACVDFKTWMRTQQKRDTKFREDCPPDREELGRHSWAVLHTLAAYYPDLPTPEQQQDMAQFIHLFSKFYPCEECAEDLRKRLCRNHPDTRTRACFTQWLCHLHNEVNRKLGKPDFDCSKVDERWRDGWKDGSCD

Take `O=C(Nc1nccs1)c1ccccn1`: the IC50 (usually the concentration that gives 50% inhibition) in “cells” was 9.47 µM (active).

Take `C=CCN1C(=O)NC(=O)/C(=C\c2ccc(-c3ccccc3[N+](=O)[O-])o2)C1=O`: the IC50 at Genome polyprotein is 25.2 µM (active). Also, the AC50 (in general, the concentration giving half of the maximal activity seen) in assay [1] was 0.507 µM (active).

As for `CCOC(=O)c1csc(-c2snnc2C)n1`, in “cells”, the IC50 was 13.2 µM (active).

For `Cc1ccc(-c2nc3ccc(C(=O)O)cc3nc2-c2ccc(C)cc2)cc1`, the IC50 at Genome polyprotein was 55.3 µM (active). Also, the cytotoxic concentration (CC50) (in general, the concentration at which the toxic effect on the cells reaches its halfway point) in [2] is 19.4 µM (active).

For the compound `CCc1nnc(N/N=C/c2ccc(-c3ccc([N+](=O)[O-])cc3)o2)n1N`, the IC50 in “cells” is 12.6 µM (active).

In the case of `Cc1ncsc1CCOC(=O)c1ccc([N+](=O)[O-])cc1`, in “cells”, the IC50 is 7.56 µM (active).

Take `O=Nc1c(O)ccc2cc(S(=O)(=O)O)ccc12`: the IC50 on Genome polyprotein was 45.7 µM (active).

Consider `Cc1cc(F)ccc1NC(=O)c1cc(S(=O)(=O)N2CCCC2)cn1C`, for which the EC50 in assay [3] and in [4] was > 112 µM (not active) in each case.

For the compound `CN(Cc1cnccn1)C(=O)CC1C(=O)NCCN1Cc1cccc(Oc2ccccc2)c1` (centres undefined), the EC50 in [3] and in [4] was > 112 µM (not active) in each case.

Regarding `Clc1cccc(-c2nc3ccc(Br)cn3c2Cc2ccsc2)c1`, the IC50 at Protein skinhead-1 is 54.8 µM (inactive).

On to `O=C(Nc1cnn(Cc2c(Cl)cccc2Cl)c1)C(c1ccccc1)c1ccccc1`, for which the EC50 – broadly, the concentration at which the effect is half-maximal – is > 112 µM (not active) in assay [3], 2.06 µM (active) in assay [5], > 112 µM (not active) in [4] and > 60 µM (not active) in assay [6].

Regarding `O=C(O)c1ccc(Cl)c(S(=O)(=O)Nc2ccc(S(=O)(=O)Nc3cccc(Cl)c3)cc2)c1`, the IC50 at Genome polyprotein was 65.7 µM (active).

In the case of `COc1cc2ccccc2cc1C(=O)Nc1ccncc1`, at Protein skinhead-1, the IC50 was 52.3 µM (inactive).

With `O=[N+]([O-])c1cc(N=Nc2ccc3ccccc3c2)ccc1O`, the IC50 in “cells” was > 50 µM (active). Besides, the 50% effective concentration (EC50) is 2.24 µM (active) in assay [3] and 0.173 µM (active) in assay [4].

Turning to `Cc1ccc(C(=O)N2CCN(c3ccc([N+](=O)[O-])c(NCc4ccco4)c3)CC2)cc1`, the EC50 is > 112 µM (not active) in assay [3] and 41.3 µM (active) in assay [4].

As for `O=C(COC(=O)[C@@H]1CCCN1C(=O)c1cccs1)NCCc1ccccc1`, at Protein skinhead-1, the IC50 is > 100 µM (inactive).

On to `CCOC(=O)c1c(C)c(-c2ccccc2)n(CC(=O)N2CCCC2)c1C`, for which the half-maximal effective concentration (EC50) in assay [3] and in assay [4] was > 112 µM (not active) throughout.

Consider `Cc1c(-c2nc(-c3cccnc3)no2)cccc1[N+](=O)[O-]`, for which, on Protein skinhead-1, the IC50 is > 100 µM (inactive).

On to `COc1ccc(C(=O)CCN2CCCCCC2)cc1`, for which, in the assay “cells”, the half-inhibitory concentration (IC50) is 22.2 µM (active). Further, the EC50 in assay [7] was 124 µM (active).

On to `COc1cc2c(cc1OC)-c1cc(NC3CC3)nc(=O)n1CC2`, for which the EC50 in assay [3] was 17.6 µM (active); in [4], > 112 µM (not active).

For the compound `O=C1N(c2ccc3c(c2)OCCO3)C(c2ccccc2)C1(F)F` (centres undefined), the IC50 in the assay “cells” is 7.43 µM (active).

On to `COc1ccccc1CNC(=O)c1cccc(N(C)C)c1`, for which the EC50 in assay [3] and in assay [4] was > 112 µM (not active) throughout.

For the compound `COc1cccc(C2=NN(C(C)=O)C(c3cccs3)C2)c1` (centres undefined), the IC50 at Protein skinhead-1 is > 100 µM (inactive).

Take `CCCCCn1c(=N)n(CC(O)COc2ccccc2OC)c2ccccc21` (centres undefined): the results for the AC50 in [8], in [9] and in [10] were 23.4 µM (active), 24.2 µM (active) and 2.12 µM (active), respectively.

For `Clc1ccc(-c2nnc(-c3ccccc3)c(N3CCSCC3)n2)cc1`, on Protein skinhead-1, the IC50 is > 100 µM (inactive).

As for `COc1cccc(N2CCN(Cc3cccc(Cl)c3)CC2)c1`, the concentration for a half-maximal effect (EC50) in [3] and in [4] was > 112 µM (not active) each time.

`Cn1c(=O)oc2cc(S(=O)(=O)N3CCN(c4cccc(Cl)c4)CC3)ccc21`: the EC50 in assay [3] and in assay [4] was > 112 µM (not active) each time.

In the case of `C#CCOc1ccc(/C=C2/C(=O)ON=C2C)cc1Br`, at Genome polyprotein, the 50% inhibitory concentration (IC50) was 80.7 µM (active).

With `O=C(COc1ncnc2c(Cl)cc(Cl)cc12)N1CCCCC1`, the IC50 at Protein skinhead-1 was > 100 µM (inactive).

In the case of `CN(C)C(=O)c1cccc(-c2cnc3c(NC=O)cc(-c4ccc(N(C)C)cc4)cn23)c1`, at Protein skinhead-1, the IC50 is > 100 µM (inactive).

Regarding `CCOC(=O)COc1ccc2c(c1)c(C(C)=O)c(C)n2Cc1ccccc1`, in the assay “cells”, the half-maximal inhibitory concentration (IC50) is 7.41 µM (active).

Regarding `C=CCc1cc(C=C2C(=O)NC(=O)NC2=O)cc(OC)c1OCc1ccc(C(=O)O)cc1`, the IC50 on Genome polyprotein is 29.1 µM (active).

With `CCN(C(=O)CN1C(=O)S/C(=C\c2cccc(Cl)c2)C1=O)C1CCS(=O)(=O)C1` (centres undefined), the IC50 on Protein skinhead-1 was > 100 µM (inactive).

Take `O=C(O)CN1C(=O)C=CC1=O`: the IC50 at Genome polyprotein is > 100 µM (active).

As for `CC(C)c1nnc(NC(=O)CCC(=O)N2CCN(c3ccc(F)cc3)CC2)s1`, the EC50 in [3] and in assay [4] was > 112 µM (not active) each time.

For `COc1ccc(-c2nnc(NC(=O)C3=COCCO3)o2)cc1`, the IC50 in “cells” was 8.62 µM (active).

Turning to `Clc1ncc(CSc2ccccc2)s1`, the IC50 on Protein skinhead-1 was 84.8 µM (inactive).

`CCOC(=O)C(C)Oc1cccc2c(=O)n(CC(=O)NCCc3ccc(OC)c(OC)c3)ccc12` (centres undefined): the EC50 in assay [3] and in assay [4] was > 112 µM (not active) throughout.

For `Nc1nc(S)nc2c1C1(CCCCC1)Cc1ccccc1-2`, the results for the AC50 in assay [8] and in assay [9] were 25 µM (active) and > 70 µM (inactive), respectively.

In the case of `Fc1ccc(-c2nnn(Cc3nc4ccccc4s3)n2)cc1`, the IC50 at Protein skinhead-1 was 80.1 µM (inactive).

On to `COc1cccc(-c2nn(-c3ccccc3)cc2C(=O)O)c1`, for which the EC50 in assay [3] and in [4] was > 112 µM (not active) in each case.

Regarding `CN1C(c2ccccc2)CC(=NO)CC1c1ccccc1` (centres undefined), the IC50 in “cells” is 16.6 µM (active).

`O=C(/C=C/Nc1ccc(Br)cc1F)c1ccco1`: the EC50 in assay [3] was 8.72 µM (active); in [11] it was 4.41 µM (active); in [12] it was 3.64 µM (active); in [4], 0.482 µM (active). Further, the half-inhibitory concentration (IC50) at Protein skinhead-1 is 15.4 µM (active).

With `Cc1ccccc1OCC(=O)OCC(=O)c1ccc[nH]1`, in the assay “cells”, the IC50 was 20.3 µM (active).

Regarding `c1ccc2c(c1)NC(c1ccncc1)n1c-2nc2ccccc21` (centres undefined), the IC50 at Protein skinhead-1 was > 100 µM (inactive).

On to `O=[N+]([O-])c1c(O)nc(O)nc1/C=C/c1ccc(Cl)cc1Cl`, for which the IC50 at Genome polyprotein is 49.1 µM (active).

Turning to `CC(C)NS(=O)(=O)c1ccc(CCC(=O)Nc2cc(Cl)ccc2Oc2ccccc2)cc1`, the AC50 is 22.5 µM (active) in assay [8], 57.7 µM (active) in assay [9] and 7.65 µM (active) in [10].

On to `Cc1ccc(C)c(NC(=O)c2cc3ccccc3o2)c1`, for which the IC50 on Protein skinhead-1 was > 100 µM (inactive).

As for `CCCCn1c(SCN2C(=O)c3ccccc3C2=O)nc2cc(S(N)(=O)=O)ccc21`, the EC50 in assay [3] and in assay [4] was > 112 µM (not active) in each case.

In the case of `O=C1NC(=O)N(c2ccccc2)C(=O)/C1=C\c1ccccc1[N+](=O)[O-]`, at Genome polyprotein, the IC50 is 38.5 µM (active).

As to `CC(C)c1ccc(NC(=O)Nc2nc(C(N)C3CCCCC3)cs2)cc1` (centres undefined), the figures for the AC50 in [8], in [9] and in assay [10] were 4.41 µM (active), 13.8 µM (active) and 7.29 µM (active), respectively.

`O=C(NC1CS(=O)(=O)CC1NCc1ccccc1)c1ccccc1` (centres undefined): the IC50 at Protein skinhead-1 is > 100 µM (inactive).

On to `CCCCOC(=O)c1ccc(NC(=O)c2nn(C)cc2Br)cc1`, for which, in “cells”, the half-maximal inhibitory concentration (IC50) was 12.2 µM (active).

Regarding `CCN(CC)C(=O)CSc1ncnc2c(-c3ccc(OC)cc3)nsc12`, the concentration giving a half-maximal response (EC50) in [3] and in assay [4] was > 112 µM (not active) each time.

With `CCCCOc1ccc(Br)cc1CSC(=N)N`, the AC50 in assay [8] was 2.58 µM (active); in [9], 23.6 µM (active); in assay [10] it was 1.37 µM (active).
